Data: ChEMBL document CHEMBL4477260, “Arylazolyl(azinyl)thioacetanilides. Part 20: Discovery of novel purinylthioacetanilides derivatives as potent HIV-1 NNRTIs via a structure-based bioisosterism approach” (Bioorg Med Chem, 2016)

How the values were obtained:
[1] = test system: Human immunodeficiency virus 1; experiment: Antiviral activity against human HIV-1 3B infected in human MT4 cells assessed as protection from virus-induced cytopathic effect measured 5 days post infection by MTT assay; type: functional, organism-based; settings: Human immunodeficiency virus 1, 3B, MT4, 120 h
[2] = test system: Human immunodeficiency virus 1; experiment: Antiviral activity against human HIV-1 3B harboring RES056 mutant infected in human MT4 cells assessed as protection from virus-induced cytopathic effect measured 5 days post infection by MTT assay; type: functional, organism-based; settings: Human immunodeficiency virus 1, 3B, MT4, 120 h
[3] = Cytotoxicity against mock-infected human MT4 cells assessed as reduction of cell viability after 5 days by MTT assay; type: cell-based
[4] = Selectivity index, ratio of CC50 for mock-infected human MT4 cells to EC50 for human HIV-1 3B infected in human MT4 cells; type: toxicity, cell-based; settings: MT4 cells (mock-infected for CC50, HIV-1-infected for EC50)
[5] = Selectivity index, ratio of CC50 for mock-infected human MT4 cells to EC50 for human HIV-1 3B harboring RES056 mutant infected in human MT4 cells; type: toxicity, cell-based; settings: MT4 cells (mock-infected for CC50, HIV-1-infected for EC50)
[6] = Selectivity index, ratio of CC50 for mock-infected human MT4 cells to EC50 for human HIV-1 3B harboring L100I mutant infected in human MT4 cells; type: toxicity, cell-based; settings: MT4 cells (mock-infected for CC50, HIV-1-infected for EC50)
[7] = Selectivity index, ratio of CC50 for mock-infected human MT4 cells to EC50 for human HIV-1 3B harboring K103N mutant infected in human MT4 cells; type: toxicity, cell-based; settings: MT4 cells (mock-infected for CC50, HIV-1-infected for EC50)
[8] = Selectivity index, ratio of CC50 for mock-infected human MT4 cells to EC50 for human HIV-1 3B harboring Y181C mutant infected in human MT4 cells; type: toxicity, cell-based; settings: MT4 cells (mock-infected for CC50, HIV-1-infected for EC50)
[9] = Selectivity index, ratio of CC50 for mock-infected human MT4 cells to EC50 for human HIV-1 3B harboring Y188L mutant infected in human MT4 cells; type: toxicity, cell-based; settings: MT4 cells (mock-infected for CC50, HIV-1-infected for EC50)
[10] = Selectivity index, ratio of CC50 for mock-infected human MT4 cells to EC50 for human HIV-1 3B harboring E138K mutant infected in human MT4 cells; type: toxicity, cell-based; settings: MT4 cells (mock-infected for CC50, HIV-1-infected for EC50)
[11] = Selectivity index, ratio of CC50 for mock-infected human MT4 cells to EC50 for human HIV-1 3B harboring F227L/V106A double mutant infected in human MT4 cells; type: toxicity, cell-based; settings: MT4 cells (mock-infected for CC50, HIV-1-infected for EC50)
[12] = test system: Human immunodeficiency virus 1; experiment: Antiviral activity against human HIV-1 3B harboring reverse transcriptase Y181C mutant infected in human MT4 cells assessed as protection from virus-induced cytopathic effect measured 5 days post infection by MTT assay; type: functional, organism-based; settings: Human immunodeficiency virus 1, 3B, MT4, 120 h
[13] = test system: Human immunodeficiency virus 1; experiment: Antiviral activity against human HIV-1 3B harboring reverse transcriptase L100I mutant infected in human MT4 cells assessed as protection from virus-induced cytopathic effect measured 5 days post infection by MTT assay; type: functional, organism-based; settings: Human immunodeficiency virus 1, 3B, MT4, 120 h
[14] = test system: Human immunodeficiency virus 1; experiment: Antiviral activity against human HIV-1 3B harboring reverse transcriptase K103N mutant infected in human MT4 cells assessed as protection from virus-induced cytopathic effect measured 5 days post infection by MTT assay; type: functional, organism-based; settings: Human immunodeficiency virus 1, 3B, MT4, 120 h
[15] = test system: Human immunodeficiency virus 1; experiment: Antiviral activity against human HIV-1 3B harboring reverse transcriptase Y188L mutant infected in human MT4 cells assessed as protection from virus-induced cytopathic effect measured 5 days post infection by MTT assay; type: functional, organism-based; settings: Human immunodeficiency virus 1, 3B, MT4, 120 h
[16] = test system: Human immunodeficiency virus 1; experiment: Antiviral activity against human HIV-1 3B harboring reverse transcriptase E138K mutant infected in human MT4 cells assessed as protection from virus-induced cytopathic effect measured 5 days post infection by MTT assay; type: functional, organism-based; settings: Human immunodeficiency virus 1, 3B, MT4, 120 h
[17] = test system: Human immunodeficiency virus 1; experiment: Antiviral activity against human HIV-1 3B harboring reverse transcriptase F227L/V106A double mutant infected in human MT4 cells assessed as protection from virus-induced cytopathic effect measured 5 days post infection by MTT assay; type: functional, organism-based; settings: Human immunodeficiency virus 1, 3B, MT4, 120 h
[18] = biological target: Human immunodeficiency virus type 1 reverse transcriptase (Human immunodeficiency virus 1, UniProt Q72547); experiment: Inhibition of HIV-1 reverse transcriptase assessed as reduction in biotin-duTP incorporation using biotin-labeled dUTP and hybrid poly(A)-oligo (dT)15 template primer after 2 hrs by ELISA

Structure (SMILES)	EC50 [1] [µM]	EC50 [2] [µM]	CC50 at 120 h [3] [µM]	selectivity ratio [4]	selectivity ratio [5]	also measured
CCOC(=O)c1ccc(NC(=O)CSc2nc3cnc(Cl)nc3n2-c2cccc3ccccc23)c(Br)c1	3.43	> 109	109	32	< 1	
NC(=O)c1ccc(NC(=O)CSc2nc3cnc(Cl)nc3n2-c2cccc3ccccc23)c(Br)c1	1.8	> 21.6	21.6	12	< 1	
Cc1ccnc2c1NC(=O)c1cccnc1N2C1CC1 [NEVIRAPINE]			≥ 15			
CC(Sc1nc2cnc(Cl)nc2n1-c1cccc2ccccc12)C(=O)Nc1ccc(C(N)=O)cc1Cl (stereo not drawn)	2.73	> 23.6	23.6	9	< 1	
O=C1Nc2ccc(Cl)cc2[C@@](C#CC2CC2)(C(F)(F)F)O1 [EFAVIRENZ]			≥ 6.34			
NS(=O)(=O)c1ccc(NC(=O)CSc2nc3cnc(Cl)nc3n2-c2ccc(C3CC3)c3ccccc23)cc1	18.7	> 113	113	6	< 1	
CC(C)Nc1cccnc1N1CCN(C(=O)c2cc3cc(NS(C)(=O)=O)ccc3[nH]2)CC1 [DELAVIRDINE]	0.0383		36.8			selectivity ratio [6]: 14; selectivity ratio [7]: 12; selectivity ratio [8]: 15; selectivity ratio [9]: 44; selectivity ratio [10]: 715; selectivity ratio [11]: 16
CCOC(=O)c1ccc(NC(=O)CSc2nc3cnc(Cl)nc3n2-c2ccc(C3CC3)c3ccccc23)c(Br)c1	> 150		150	< 1		
Cc1cc(C#N)cc(C)c1Oc1nc(Nc2ccc(C#N)cc2)nc(N)c1Br [ETRAVIRINE]	0.00335		2.46			EC50 [12]: 0.015 µM
CC(Sc1nc2cnc(Cl)nc2n1-c1ccc(C2CC2)c2ccccc12)C(=O)Nc1ccc(S(N)(=O)=O)cc1Cl (stereo not drawn)	4.04	≥ 5.74	17.6	4	≤ 3	
CC(Sc1nc2cnc(Cl)nc2n1-c1ccc(C2CC2)c2ccccc12)C(=O)Nc1ccc(C(N)=O)cc1Br (stereo not drawn)	7.22	22.2	55.9	8	10	EC50 [13]: 5.64 µM; EC50 [14]: ≥ 48.1 µM; EC50 [12]: > 55.8 µM; EC50 [15]: > 55.8 µM; EC50 [16]: ≥ 65.1 µM; EC50 [17]: > 55.8 µM; selectivity ratio [6]: 8; selectivity ratio [7]: ≤ 1; selectivity ratio [8]: < 1; selectivity ratio [9]: < 1; selectivity ratio [10]: ≤ 1; selectivity ratio [11]: < 1
CC(Sc1nc2cnc(Cl)nc2n1-c1cccc2ccccc12)C(=O)Nc1ccc(S(N)(=O)=O)cc1Cl (stereo not drawn)	1.07	> 21.5	21.5	20	< 1	
COC(=O)c1ccc(NC(=O)CSc2nc3cnc(Cl)nc3n2-c2ccc(C3CC3)c3ccccc23)c(Br)c1	> 153		153	< 1		
O=C(CSc1nc2cnc(Cl)nc2n1-c1cccc2ccccc12)Nc1ccc(C(F)(F)F)cc1	> 14.3		14.2	< 1		
CC(Sc1nc2cnc(Cl)nc2n1-c1cccc2ccccc12)C(=O)Nc1ccc(S(N)(=O)=O)cc1Br (stereo not drawn)	0.78	> 19	19	24	< 1	IC50 [18]: 6.42 µM
O=C(CSc1nc2cnc(Cl)nc2n1-c1ccc(C2CC2)c2ccccc12)Nc1ccc(C(F)(F)F)cc1	> 16.2		16.2	< 1	< 1	
NC(=O)c1ccc(NC(=O)CSc2nc3cnc(Cl)nc3n2-c2ccc(C3CC3)c3ccccc23)c(Br)c1	> 11.2		11.2	< 1		
CC(Sc1nc2cnc(Cl)nc2n1-c1ccc(C2CC2)c2ccccc12)C(=O)Nc1ccc(S(N)(=O)=O)cc1Br (stereo not drawn)	2.75	> 15.9	15.9	6	1	
CC(Sc1nc2cnc(Cl)nc2n1-c1ccc(C2CC2)c2ccccc12)C(=O)Nc1ccc(C(N)=O)cc1Cl (stereo not drawn)	> 25.1		25.1	< 1		
COC(=O)c1ccc(NC(=O)CSc2nc3cnc(Cl)nc3n2-c2cccc3ccccc23)c(Br)c1	1.66	> 156	156	94	< 1	
NC(=O)c1ccc(NC(=O)CSc2nc3cnc(Cl)nc3n2-c2ccc(C3CC3)c3ccccc23)c(Cl)c1	> 6.39		6.39	< 1		
CC(Sc1nc2cnc(Cl)nc2n1-c1cccc2ccccc12)C(=O)Nc1ccc(C(N)=O)cc1Br (stereo not drawn)	1.86	> 21.8	21.8	12	< 1	
NC(=O)c1ccc(NC(=O)CSc2nc3cnc(Cl)nc3n2-c2cccc3ccccc23)cc1	≥ 28.8	> 156	156	≤ 5	< 1	
NS(=O)(=O)c1ccc(NC(=O)CSc2nc3cnc(Cl)nc3n2-c2cccc3ccccc23)cc1	4.46	> 104	104	23	< 1	
NC(=O)c1ccc(NC(=O)CSc2nc3cnc(Cl)nc3n2-c2cccc3ccccc23)c(Cl)c1	4.56	> 22.7	22.7	5	< 1	
